Records with an inconclusive call do not appear.

For the assay, the system named is HEK293 LMP1 TES2 NF-kB luciferase reporter, 16 h. Description: inhibitors of TNFa-stimulated NF-kB luciferase reporter, dose response, selectivity assay for EBV LMP1 NF-kB inhibitor project, HEK293 LMP1 reporter cells, dry powder, set 2 (AID 624369).
With `N#C[C@H]1[C@H](c2ccc(C#Cc3ccccc3F)cc2)[C@@H](CO)N1C(=O)c1cccnc1`, the AC35 is 20.1 µM. For `COc1ccccc1C#Cc1cnc2c(c1)C(=O)N([C@H](C)CO)C[C@H](C)[C@@H](CN(C)C(=O)c1ccc3c(c1)OCO3)O2` the value was 34.3 µM. Then `CC(C)NC(=O)N1Cc2cc(C(=O)NC3Cc4ccccc4C3)nc(-c3cccc(-c4cccnc4)c3)c2[C@H]1CCO`, with 29.1 µM. Then `COc1ccc(CNC(=O)c2cc3c(c(-c4cccc(-c5ccc(C#N)cc5)c4)n2)[C@@H](CCO)N([S@](=O)C(C)(C)C)C3)cc1`, with 19.5 µM; and `Cc1ccc(S(=O)(=O)N(C)C[C@H]2Oc3cc(C#Cc4ccncc4)ccc3S(=O)(=O)N([C@@H](C)CO)C[C@@H]2C)cc1`, with 10.2 µM; and `CC(C)(C)[S@@](=O)N1Cc2cc(C(=O)NCCc3ccncc3)nc(-c3cccc(-c4cccnc4)c3)c2[C@H]1CCO`, with 17.7 µM. For the compound `CC(C)(C)[S@@](=O)N1Cc2cc(C(=O)NCc3ccccc3F)nc(-c3cccc(-c4ccncc4)c3)c2[C@H]1CCO`, the AC35 is 9.63 µM. Then `N#C[C@H]1[C@@H](c2ccc(-c3cccnc3)cc2)[C@@H](CO)N1C(=O)Nc1ccc(F)cc1`, with 16.9 µM.

Values taken from PubChem BioAssay AID624369 (Broad Institute, 2012).
